From US8058242B2, “Chimeric proteins with natriuretic activity” (The University of Queensland, priority 2004, dated 2011)
Where “and” joins values, the source holds several entries; their conditions need not be identical. Equal entries are not always repeated. Positions of bridges follow the written chain, without caps; N, C: chain ends. Residues, ends and D or L forms follow the SMILES beside them.

Columns and labels:
CHF-induced sheep = test: Ovine model of tachycardia induced congestive heart failure (Example 9); type: in vivo
From the text: All procedures conform with the Guide for the Care and Use of Laboratory Animals published by the US National Institutes of Health (NIH Publication No. 82-23, revised 1996). Six adult crossbred sheep (weight, 50 to 55 kg) were implanted with pacemakers under isoflurane anesthesia and oxygen. A bipolar screw fixation ventricular pacing lead was placed transvenously under fluoroscopic guidance in the apex of the right ventricle. The proximal end of the lead was connected to pacemakers reprogrammed for high-rate pacing (Sigma, Medtronic) that were positioned subcutaneously in the lateral aspect of the neck. Oxytetracycline (5 mL), an antibiotic, and flunixin meglumine (1 mL), an analgesic, were administered subcutaneously prophylactically on the day of surgery. After 3 days of recovery, right ventricular pacing was initiated at 180 bpm and continued for 4 weeks to induce CHF (NYHC III). Animals were anesthetized and an echocardiographic examination and a conductance catheter evaluation were performed.
Animals were randomized to either TNPc or ANP on two consecutive days, according to the schedule in Table 11B. Studies were conducted over a period of 4 days with two study groups.
On the day of the first experiment, after a control period in which baseline measurements were made, drug infusion via a fore-leg vein using new calibrated Terumo syringe pumps was commenced (TNPc or ANP randomized to days 1 or 2) at 2, 4 and 6 pmol/min/kg, each for 30 min. Echocardiographic and conductance catheter evaluations were performed at 30 min after each drug level. On the second day, the experiment was repeated with the other drug (either TNPc or […] according to day 1 treatment) at 2, 4 and 6 pmol/min, each for 30 min and echocardiographic and conductance catheter evaluations were performed at 30 min after each drug level. The animal was euthanased at the conclusion of the experiment. Stock solutions of each peptide were made up under sterile conditions using sterile saline, were protected from light with aluminium foil and kept refrigerated.
Left ventricular (LV) ejection fraction was monitored by echocardiography and the conductance catheter was used to measure LV dP/i, LV end diastolic pressure, LV ESPVR, heart rate and mean arterial pressure (MAP). Values were expressed as mean +/−SEM and were analyzed by Students t-test. A value of p<0.05 was considered significant.

[1] = tested on: denuded aortic rings, GC A receptor; test: Relaxation of noradrenaline constricted endothelium-denuded aortic rings (Example 11); set-up: species or system rat; conditions: GC-A mediated
Summary of the method: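 Endothelium-denuded thoracic aortic rings (5 mm) from male Sprague Dawley rats were held at 10 g tension in carbogenated physiological salt solution at 37 °C. Denudation was confirmed by under 10% ACh (10 μM) relaxation after phenylephrine (0.3 μM). Rings constricted with noradrenaline, scaled to 40 mM KCl contraction, were relaxed with increasing peptide doses, with at least 3 rings per peptide.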

Compound | +dP/dt (CHF-induced sheep; high dose infusion) | EDP (CHF-induced sheep; high dose infusion) | ESPR slope (CHF-induced sheep; high dose infusion) | ejection fraction (CHF-induced sheep; high dose infusion) | heart rate (CHF-induced sheep; high dose infusion) | −dP/dt (CHF-induced sheep; high dose infusion) | +dP/dt (CHF-induced sheep; low dose infusion) | EDP (CHF-induced sheep; low dose infusion) | ESPR slope (CHF-induced sheep; low dose infusion) | ejection fraction (CHF-induced sheep; low dose infusion) | heart rate (CHF-induced sheep; low dose infusion) | −dP/dt (CHF-induced sheep; low dose infusion) | +dP/dt (CHF-induced sheep; recovery (30 min)) | EDP (CHF-induced sheep; recovery (30 min)) | ESPR slope (CHF-induced sheep; recovery (30 min)) | ejection fraction (CHF-induced sheep; recovery (30 min)) | heart rate (CHF-induced sheep; recovery (30 min)) | −dP/dt (CHF-induced sheep; recovery (30 min)) | Mean relaxation SEM of denuded aortic rings expressed as % of KCl response [1] | reduction of −dp/dt (CHF-induced sheep; TNPc infusion)
CC[C@H](C)[C@@H]1NC(=O)[C@H](CCCNC(=N)N)NC(=O)[C@H](CC(=O)O)NC(=O)[C@H](CCSC)NC(=O)[C@H](CCCNC(=N)N)NC(=O)CNC(=O)CNC(=O)[C@H](Cc2ccccc2)NC(=O)[C@@H](NC(=O)[C@H](CO)NC(=O)[C@H](CO)NC(=O)[C@H](CCCNC(=N)N)NC(=O)[C@H](CCCNC(=N)N)NC(=O)[C@H](CC(C)C)NC(=O)[C@@H](N)CO)CSSC[C@@H](C(=O)N[C@@H](CC(N)=O)C(=O)N[C@@H](CO)C(=O)N[C@@H](Cc2ccccc2)C(=O)N[C@@H](CCCNC(=N)N)C(=O)N[C@@H](Cc2ccc(O)cc2)C(=O)O)NC(=O)CNC(=O)[C@H](CC(C)C)NC(=O)CNC(=O)[C@H](CO)NC(=O)[C@H](CCC(N)=O)NC(=O)[C@H](C)NC(=O)CNC1=O [hANP, reference compound] | 1047.00 | 3.33 | 3.04 | 54.50 | 96.33 | 1332.17 | 949.33 | 5.83 | 2.85 | 42.17 | 91.00 | 1336.50 | 1035.83 | 6.33 | 3.44 | 41.00 | 91.00 | 1232.17 | 66% and 66.5 ± 2.3% | 
CC[C@H](C)[C@H](NC(=O)[C@H](CCCCN)NC(=O)[C@H](CO)NC(=O)[C@H](CC(=O)O)NC(=O)[C@@H](N)CO)C(=O)NCC(=O)N[C@@H](CC(N)=O)C(=O)NCC(=O)N[C@H]1CSSC[C@@H](C(=O)N[C@@H](CC(N)=O)C(=O)N[C@@H](CCCNC(=N)N)C(=O)N[C@H](C(=O)N[C@@H](CCSC)C(=O)N[C@@H](CCC(N)=O)C(=O)N[C@@H](CC(N)=O)C(=O)N2CCC[C@H]2C(=O)N2CCC[C@H]2C(=O)N[C@@H](CCCCN)C(=O)N[C@@H](CCCCN)C(=O)N[C@@H](Cc2ccccc2)C(=O)N[C@@H](CO)C(=O)NCC(=O)N[C@@H](CCC(=O)O)C(=O)O)[C@@H](C)CC)NC(=O)CNC(=O)[C@H](CC(C)C)NC(=O)CNC(=O)[C@H](CO)NC(=O)[C@H](C(C)C)NC(=O)[C@H](CO)NC(=O)CNC(=O)[C@H]([C@@H](C)CC)NC(=O)[C@H](CCCNC(=N)N)NC(=O)[C@H](CC(=O)O)NC(=O)[C@H](CC(C)C)NC(=O)[C@@H]2CCCN2C(=O)[C@H](Cc2ccccc2)NC(=O)CNC(=O)[C@H](Cc2ccccc2)NC1=O [TNPc] (H-SDSKIGNGCFGFPLDRIGSVSGLGCNRIMQNPPKKFSGE-OH; disulfide 9-25) | 1078.00 | 4.17 | 3.78 | 61.83 | 100.67 | 1298.00 | 1079.67 | 5.83 | 2.72 | 48.17 | 98.00 | 1469.50 | 1064.83 | 7.67 | 3.35 | 42.33 | 98.00 | 1201.50 | 55.0 ± 10.7% | 27%
